For 15 compounds, IC50 and Ki results are on record in ChEMBL document CHEMBL1909046, “DrugMatrix in vitro pharmacology data”.

Data set [1] can be described thus: DRUGMATRIX: Platelet-Derived Growth Factor (PDGF) radioligand binding (ligand: [125I] PDGF). Type of data set: cell-based. As to conditions: nih3t3; Not Active = under 50% inhibition at 10 µM.
Data set [2] has as its target Protein kinase C alpha type (Homo sapiens, UniProt P17252). It is filed as cell-based. Particulars: sf9.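 Note: inhibition of PKCalpha kinase activity measured in an enzyme assay with histone as the phosphorylation substrate; in other assays of this panel Not Active means under 50% inhibition at 10 µM.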
Data set [3] addresses T1, Alpha-1D adrenergic receptor (Homo sapiens, UniProt P25100).
T1 sequence (P25100 whole entry): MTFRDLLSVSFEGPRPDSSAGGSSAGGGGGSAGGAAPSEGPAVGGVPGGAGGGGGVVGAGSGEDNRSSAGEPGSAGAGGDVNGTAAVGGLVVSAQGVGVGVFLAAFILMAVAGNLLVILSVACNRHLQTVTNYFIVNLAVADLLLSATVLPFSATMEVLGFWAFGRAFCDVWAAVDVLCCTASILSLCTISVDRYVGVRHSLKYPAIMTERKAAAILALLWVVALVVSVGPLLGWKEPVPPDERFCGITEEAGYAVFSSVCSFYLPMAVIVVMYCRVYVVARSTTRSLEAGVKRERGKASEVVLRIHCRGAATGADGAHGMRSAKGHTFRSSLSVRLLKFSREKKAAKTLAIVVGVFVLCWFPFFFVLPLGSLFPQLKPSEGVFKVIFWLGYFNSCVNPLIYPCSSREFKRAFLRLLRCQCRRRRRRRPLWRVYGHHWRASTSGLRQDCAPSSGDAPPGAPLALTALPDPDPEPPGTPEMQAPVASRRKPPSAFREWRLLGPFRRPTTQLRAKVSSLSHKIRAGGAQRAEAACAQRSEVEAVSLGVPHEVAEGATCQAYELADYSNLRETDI
It is filed as cell membranes, HEK293, Membrane. As to conditions: hek293.

For data set [4], the target named is T2, C-X-C chemokine receptor type 1 (Homo sapiens, UniProt P25024). Note: in other assays of this panel Not Active means under 50% inhibition at 10 µM.
T2 sequence (P25024 whole entry): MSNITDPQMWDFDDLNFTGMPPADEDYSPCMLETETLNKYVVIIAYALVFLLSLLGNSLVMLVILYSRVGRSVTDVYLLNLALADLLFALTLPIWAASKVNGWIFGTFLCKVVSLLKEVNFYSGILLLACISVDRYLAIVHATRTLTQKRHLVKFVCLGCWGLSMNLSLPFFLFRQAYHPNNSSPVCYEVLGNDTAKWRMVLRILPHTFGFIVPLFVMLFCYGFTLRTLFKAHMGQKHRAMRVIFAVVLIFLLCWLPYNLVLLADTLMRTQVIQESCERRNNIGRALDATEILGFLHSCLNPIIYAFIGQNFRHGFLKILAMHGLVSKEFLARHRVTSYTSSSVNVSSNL

Data set [5] has as its target T3, Alpha-1A adrenergic receptor (Rattus norvegicus, UniProt P43140).
T3 sequence (P43140 whole entry): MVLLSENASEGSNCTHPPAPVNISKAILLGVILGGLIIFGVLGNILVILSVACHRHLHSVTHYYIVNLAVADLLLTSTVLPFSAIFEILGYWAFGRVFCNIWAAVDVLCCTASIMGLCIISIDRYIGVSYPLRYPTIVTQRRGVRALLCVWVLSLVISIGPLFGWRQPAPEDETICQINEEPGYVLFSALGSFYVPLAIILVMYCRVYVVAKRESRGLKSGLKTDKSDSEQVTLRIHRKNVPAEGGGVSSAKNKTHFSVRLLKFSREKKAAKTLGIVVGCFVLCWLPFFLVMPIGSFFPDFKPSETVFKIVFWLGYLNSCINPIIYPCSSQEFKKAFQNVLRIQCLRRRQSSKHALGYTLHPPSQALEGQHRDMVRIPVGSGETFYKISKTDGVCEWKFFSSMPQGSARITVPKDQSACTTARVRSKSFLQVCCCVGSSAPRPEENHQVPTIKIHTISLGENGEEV
Briefly: DRUGMATRIX: Alpha-1A adrenergic receptor radioligand binding (ligand: prazosin). Type of data set: cell membranes, Wistar, Submaxillary gland, Membrane. Particulars: Not Active = under 50% inhibition at 10 µM.

In data set [6] the target is T4, Progesterone receptor (Bos taurus, UniProt Q690N0).
T4 sequence (Q690N0 whole entry): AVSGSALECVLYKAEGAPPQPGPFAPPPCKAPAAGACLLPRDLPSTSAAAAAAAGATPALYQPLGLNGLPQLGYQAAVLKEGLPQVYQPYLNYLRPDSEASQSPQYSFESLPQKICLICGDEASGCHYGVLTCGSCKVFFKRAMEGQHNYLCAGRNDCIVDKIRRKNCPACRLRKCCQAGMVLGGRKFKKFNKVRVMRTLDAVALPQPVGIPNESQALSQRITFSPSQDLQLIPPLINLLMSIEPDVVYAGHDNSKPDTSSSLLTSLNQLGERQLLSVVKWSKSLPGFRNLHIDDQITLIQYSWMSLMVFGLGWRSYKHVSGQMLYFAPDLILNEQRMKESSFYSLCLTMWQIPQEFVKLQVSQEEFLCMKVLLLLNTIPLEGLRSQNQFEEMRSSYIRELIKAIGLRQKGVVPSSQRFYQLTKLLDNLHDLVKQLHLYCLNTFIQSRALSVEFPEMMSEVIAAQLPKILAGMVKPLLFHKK
Put plainly: DRUGMATRIX: Progesterone radioligand binding (ligand: [3H] R-5020). Type of data set: tissue-based, Uterus. Particulars: Not Active = under 50% inhibition at 10 µM.

The target in data set [7] is Cytochrome P450 3A4 (Homo sapiens, UniProt P08684). As to conditions: bti-tn-5b1-4. Note: in other assays of this panel Not Active means under 50% inhibition at 10 µM.
Sequence of Cytochrome P450 3A4 (P08684 whole entry): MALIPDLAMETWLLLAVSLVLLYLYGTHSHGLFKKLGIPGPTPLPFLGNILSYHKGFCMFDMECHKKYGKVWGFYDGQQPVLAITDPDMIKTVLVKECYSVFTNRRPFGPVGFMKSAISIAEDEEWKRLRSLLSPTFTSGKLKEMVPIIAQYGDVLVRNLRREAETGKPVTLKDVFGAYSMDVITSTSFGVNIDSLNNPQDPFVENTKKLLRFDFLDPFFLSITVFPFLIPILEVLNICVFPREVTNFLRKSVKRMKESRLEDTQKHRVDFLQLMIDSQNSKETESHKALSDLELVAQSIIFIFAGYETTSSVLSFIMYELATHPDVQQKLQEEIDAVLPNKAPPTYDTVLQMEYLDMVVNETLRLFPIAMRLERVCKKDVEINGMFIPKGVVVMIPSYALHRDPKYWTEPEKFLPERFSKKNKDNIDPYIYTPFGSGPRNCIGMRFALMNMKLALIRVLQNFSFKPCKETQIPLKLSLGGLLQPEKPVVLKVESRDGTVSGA

On to `Nn1nnc2ccccc21`, for which the IC50 entry in data set [1], in data set [2], in data set [3], in data set [4], in data set [5] and in data set [6] was “Not Active” in each case. Also, the IC50 – broadly, the concentration that inhibits the measured activity by half – in data set [7] is on record as “Not Active”. The inhibitory constant (Ki) result in data set [1] and in data set [7] was “Not Active” each time.

With `CC[C@]1(O)CC[C@H]2[C@@H]3CCC4=CCCC[C@@H]4[C@H]3CC[C@@]21C`, the IC50 result in data set [1] is “Not Active”; in data set [2], “Not Active”; in data set [3], “Not Active”; in data set [4], “Not Active”; in data set [5], “Not Active”; in data set [6] (read-out: IC50), 201 nM. For the same compound, the half-inhibitory concentration (IC50) entry in data set [7] is on record as “Not Active”. Also, the inhibitory constant (Ki) (in general, the dissociation constant of the complex between target and ligand, obtained from inhibition or displacement) in data set [1] is “Not Active”; in data set [6] (read-out: Ki), 26 nM; in data set [7], “Not Active”.

For the compound `CCOC(=O)[C@H](CCc1ccccc1)N[C@@H](C)C(=O)N1Cc2ccccc2C[C@H]1C(=O)O`, the IC50 entry in data set [1], in data set [2], in data set [3], in data set [4], in data set [5] and in data set [6] was “Not Active” each time. For the same compound, the IC50 entry in data set [7] was “Not Active”. In addition, the Ki entry in data set [1] and in data set [7] was “Not Active” throughout.

With `O=C(c1ccccc1Cl)N1CCC(Cc2ccccc2)CC1`, the IC50 entry in data set [1], in data set [2], in data set [3], in data set [4], in data set [5] and in data set [6] was “Not Active” in each case. Moreover, the IC50 result in data set [7] was “Not Active”. For the same compound, the inhibitory constant (Ki) entry in data set [1] and in data set [7] was “Not Active” in each case.

Turning to `Clc1cc2c(cc1Cl)Oc1cc(Cl)c(Cl)cc1O2` [2,3,7,8-TETRACHLORODIBENZO-P-DIOXIN], the half-inhibitory concentration (IC50) result in data set [1], in data set [2], in data set [3], in data set [4], in data set [5] and in data set [6] was “Not Active” in each case. The IC50 result in data set [7] is “Not Active”. Moreover, the Ki entry in data set [1] and in data set [7] was “Not Active” throughout.

`C=C1/C(=C\C=C2/CCC[C@]3(C)[C@@H]([C@H](C)CCCC(C)C)CC[C@@H]23)C[C@@H](O)C[C@@H]1O` [ALFACALCIDOL]: the IC50 result in data set [1], in data set [2], in data set [3], in data set [4], in data set [5] and in data set [6] was “Not Active” throughout. For the same compound, in data set [7], the IC50 result is reported as “Not Active”. The Ki entry in data set [1] and in data set [7] was “Not Active” each time.

Regarding `CCCCCC[C@H]1C(=O)O[C@H](C)[C@H](NC(=O)c2cccc(NC=O)c2O)C(=O)O[C@@H](C)[C@@H]1OC(=O)CC(C)C` [ANTIMYCIN A], the half-maximal inhibitory concentration (IC50) entry in data set [1], in data set [2], in data set [3], in data set [4], in data set [5] and in data set [6] was “Not Active” in each case. In data set [7], the IC50 entry is “Not Active”. Besides, the Ki result in data set [1] and in data set [7] was “Not Active” in each case.

With `CO[C@H]1[C@@H](O)[C@H](N)[C@@H](O[C@H]2O[C@H]([C@H](C)N)CC[C@H]2N)[C@H](O)[C@@H]1N(C)C(=O)CN` [ASTROMICIN], the concentration for half-maximal inhibition (IC50) entry in data set [1], in data set [2], in data set [3], in data set [4], in data set [5] and in data set [6] was “Not Active” throughout. In addition, the 50% inhibitory concentration (IC50) entry in data set [7] is reported as “Not Active”. In addition, the Ki entry in data set [1] and in data set [7] was “Not Active” throughout.

For `[N-]=[N+]=CC(=O)OC[C@H](N)C(=O)O` [AZASERINE], the half-maximal inhibitory concentration (IC50) result in data set [1], in data set [2], in data set [3], in data set [4], in data set [5] and in data set [6] was “Not Active” each time. The half-maximal inhibitory concentration (IC50) result in data set [7] is reported as “Not Active”. In addition, the inhibition constant Ki result in data set [1] and in data set [7] was “Not Active” throughout.

Consider `CC(C)(C)c1ccc(S(=O)(=O)/C=C/C#N)cc1` [BAY-11-7085], for which the IC50 entry in data set [1], in data set [2], in data set [3], in data set [4], in data set [5] and in data set [6] was “Not Active” each time. In addition, the half-maximal inhibitory concentration (IC50) entry in data set [7] is “Not Active”. Further, the inhibition constant Ki entry in data set [1] and in data set [7] was “Not Active” each time.

As for `CCc1oc2ccccc2c1C(=O)c1cc(Br)c(O)c(Br)c1` [BENZBROMARONE], the half-maximal inhibitory concentration (IC50) entry in data set [1], in data set [2], in data set [3], in data set [4], in data set [5] and in data set [6] was “Not Active” in each case. The IC50 result in data set [7] is on record as “Not Active”. The Ki result in data set [1] and in data set [7] was “Not Active” each time.

In the case of `O=c1cc(-c2ccccc2)oc2ccc3ccccc3c12` [BETA-NAPHTHOFLAVONE], the IC50 result in data set [1], in data set [2], in data set [3], in data set [4], in data set [5] and in data set [6] was “Not Active” throughout. The half-maximal inhibitory concentration (IC50) entry in data set [7] was “Not Active”. Besides, the inhibitory constant (Ki) result in data set [1] and in data set [7] was “Not Active” in each case.

As to `CS(=O)(=O)OCCCCOS(C)(=O)=O` [BUSULFAN], the IC50 result in data set [1], in data set [2], in data set [3], in data set [4], in data set [5] and in data set [6] was “Not Active” in each case. The half-inhibitory concentration (IC50) result in data set [7] is listed as “Not Active”. Also, the inhibitory constant (Ki) entry in data set [1] and in data set [7] was “Not Active” each time.

For the compound `O=C(/C=C/c1ccc(O)c(O)c1)OCCc1ccccc1` [CAFFEIC ACID PHENETHYL ESTER], the IC50 result in data set [1], in data set [2], in data set [3], in data set [4], in data set [5] and in data set [6] was “Not Active” throughout. Also, in data set [7], the IC50 result is recorded as “Not Active”. Further, the Ki result in data set [1] and in data set [7] was “Not Active” throughout.

In the case of `COc1cc(CNC(=O)CCCC/C=C/C(C)C)ccc1O` [CAPSAICIN], the IC50 result in data set [1], in data set [2], in data set [3], in data set [4], in data set [5] and in data set [6] was “Not Active” throughout. Moreover, the half-inhibitory concentration (IC50) entry in data set [7] is recorded as “Not Active”. The Ki result in data set [1] and in data set [7] was “Not Active” in each case.
